Results reported in US20230079819A1, “COMPOUNDS AND USES THEREOF” (Foghorn Therapeutics Inc., priority 2019, published 2023).

Tests used:
BRG-1 = target: T1, BRG-1 (Homo sapiens, UniProt P51532); assay: ATPase catalytic activity of BRG-1, ADP-Glo in vitro biochemical assay; details: ATPase catalytic activity, 30 nM BRG-1, 400 μM ATP, read-out: BRG1 IP50 (μM)*
T1 construct: made in house; host or cells: High Five insect cells

BRM = target: T2, BRM (Homo sapiens, UniProt P51531); assay: ATPase catalytic activity of BRM, ADP-Glo in vitro biochemical assay; details: ATPase catalytic activity, 30 nM BRM, 400 μM ATP, read-out: BRM IP50 (μM)*
T2 construct: made in house; host or cells: High Five insect cells
T2 sequence (P51531 whole entry): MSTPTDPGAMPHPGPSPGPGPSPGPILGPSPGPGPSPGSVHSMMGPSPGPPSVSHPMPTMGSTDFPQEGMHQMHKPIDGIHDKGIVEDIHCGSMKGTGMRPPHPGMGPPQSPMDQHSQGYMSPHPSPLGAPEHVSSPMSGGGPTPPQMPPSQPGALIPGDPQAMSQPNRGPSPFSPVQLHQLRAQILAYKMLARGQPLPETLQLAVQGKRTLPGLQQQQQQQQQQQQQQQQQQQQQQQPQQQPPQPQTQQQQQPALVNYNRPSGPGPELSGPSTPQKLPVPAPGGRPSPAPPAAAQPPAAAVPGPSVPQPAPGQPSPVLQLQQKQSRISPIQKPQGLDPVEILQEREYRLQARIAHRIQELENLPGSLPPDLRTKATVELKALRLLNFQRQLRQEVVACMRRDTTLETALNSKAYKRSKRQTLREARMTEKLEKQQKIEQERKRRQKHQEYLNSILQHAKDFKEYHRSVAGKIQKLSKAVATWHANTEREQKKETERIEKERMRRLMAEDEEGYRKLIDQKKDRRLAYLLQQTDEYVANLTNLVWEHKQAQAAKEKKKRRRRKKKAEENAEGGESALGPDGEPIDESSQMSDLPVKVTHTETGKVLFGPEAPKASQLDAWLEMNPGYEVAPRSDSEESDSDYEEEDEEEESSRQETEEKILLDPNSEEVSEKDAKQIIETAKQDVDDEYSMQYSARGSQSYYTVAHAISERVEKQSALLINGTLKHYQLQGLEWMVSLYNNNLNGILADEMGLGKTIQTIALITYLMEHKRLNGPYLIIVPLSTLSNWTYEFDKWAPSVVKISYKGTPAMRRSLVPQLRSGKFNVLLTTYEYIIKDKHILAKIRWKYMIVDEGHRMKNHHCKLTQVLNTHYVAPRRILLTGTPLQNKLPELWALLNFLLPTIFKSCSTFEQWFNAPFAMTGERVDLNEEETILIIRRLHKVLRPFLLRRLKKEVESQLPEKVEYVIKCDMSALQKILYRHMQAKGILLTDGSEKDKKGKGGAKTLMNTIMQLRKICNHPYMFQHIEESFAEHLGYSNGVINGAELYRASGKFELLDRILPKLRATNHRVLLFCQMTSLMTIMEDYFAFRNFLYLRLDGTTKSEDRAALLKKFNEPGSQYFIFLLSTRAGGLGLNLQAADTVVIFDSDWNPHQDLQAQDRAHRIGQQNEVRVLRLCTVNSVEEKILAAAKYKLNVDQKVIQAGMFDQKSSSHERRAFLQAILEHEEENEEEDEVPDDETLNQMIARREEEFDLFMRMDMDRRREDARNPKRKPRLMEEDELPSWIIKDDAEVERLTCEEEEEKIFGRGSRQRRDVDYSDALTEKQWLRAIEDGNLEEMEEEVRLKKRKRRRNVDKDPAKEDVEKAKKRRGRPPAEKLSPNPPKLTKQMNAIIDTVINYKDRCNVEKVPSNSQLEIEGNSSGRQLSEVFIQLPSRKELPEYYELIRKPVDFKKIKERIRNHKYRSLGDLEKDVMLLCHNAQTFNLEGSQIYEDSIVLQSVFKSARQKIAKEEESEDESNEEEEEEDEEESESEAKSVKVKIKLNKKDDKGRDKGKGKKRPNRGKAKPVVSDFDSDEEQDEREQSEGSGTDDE

T1 sequence (P51532 whole entry): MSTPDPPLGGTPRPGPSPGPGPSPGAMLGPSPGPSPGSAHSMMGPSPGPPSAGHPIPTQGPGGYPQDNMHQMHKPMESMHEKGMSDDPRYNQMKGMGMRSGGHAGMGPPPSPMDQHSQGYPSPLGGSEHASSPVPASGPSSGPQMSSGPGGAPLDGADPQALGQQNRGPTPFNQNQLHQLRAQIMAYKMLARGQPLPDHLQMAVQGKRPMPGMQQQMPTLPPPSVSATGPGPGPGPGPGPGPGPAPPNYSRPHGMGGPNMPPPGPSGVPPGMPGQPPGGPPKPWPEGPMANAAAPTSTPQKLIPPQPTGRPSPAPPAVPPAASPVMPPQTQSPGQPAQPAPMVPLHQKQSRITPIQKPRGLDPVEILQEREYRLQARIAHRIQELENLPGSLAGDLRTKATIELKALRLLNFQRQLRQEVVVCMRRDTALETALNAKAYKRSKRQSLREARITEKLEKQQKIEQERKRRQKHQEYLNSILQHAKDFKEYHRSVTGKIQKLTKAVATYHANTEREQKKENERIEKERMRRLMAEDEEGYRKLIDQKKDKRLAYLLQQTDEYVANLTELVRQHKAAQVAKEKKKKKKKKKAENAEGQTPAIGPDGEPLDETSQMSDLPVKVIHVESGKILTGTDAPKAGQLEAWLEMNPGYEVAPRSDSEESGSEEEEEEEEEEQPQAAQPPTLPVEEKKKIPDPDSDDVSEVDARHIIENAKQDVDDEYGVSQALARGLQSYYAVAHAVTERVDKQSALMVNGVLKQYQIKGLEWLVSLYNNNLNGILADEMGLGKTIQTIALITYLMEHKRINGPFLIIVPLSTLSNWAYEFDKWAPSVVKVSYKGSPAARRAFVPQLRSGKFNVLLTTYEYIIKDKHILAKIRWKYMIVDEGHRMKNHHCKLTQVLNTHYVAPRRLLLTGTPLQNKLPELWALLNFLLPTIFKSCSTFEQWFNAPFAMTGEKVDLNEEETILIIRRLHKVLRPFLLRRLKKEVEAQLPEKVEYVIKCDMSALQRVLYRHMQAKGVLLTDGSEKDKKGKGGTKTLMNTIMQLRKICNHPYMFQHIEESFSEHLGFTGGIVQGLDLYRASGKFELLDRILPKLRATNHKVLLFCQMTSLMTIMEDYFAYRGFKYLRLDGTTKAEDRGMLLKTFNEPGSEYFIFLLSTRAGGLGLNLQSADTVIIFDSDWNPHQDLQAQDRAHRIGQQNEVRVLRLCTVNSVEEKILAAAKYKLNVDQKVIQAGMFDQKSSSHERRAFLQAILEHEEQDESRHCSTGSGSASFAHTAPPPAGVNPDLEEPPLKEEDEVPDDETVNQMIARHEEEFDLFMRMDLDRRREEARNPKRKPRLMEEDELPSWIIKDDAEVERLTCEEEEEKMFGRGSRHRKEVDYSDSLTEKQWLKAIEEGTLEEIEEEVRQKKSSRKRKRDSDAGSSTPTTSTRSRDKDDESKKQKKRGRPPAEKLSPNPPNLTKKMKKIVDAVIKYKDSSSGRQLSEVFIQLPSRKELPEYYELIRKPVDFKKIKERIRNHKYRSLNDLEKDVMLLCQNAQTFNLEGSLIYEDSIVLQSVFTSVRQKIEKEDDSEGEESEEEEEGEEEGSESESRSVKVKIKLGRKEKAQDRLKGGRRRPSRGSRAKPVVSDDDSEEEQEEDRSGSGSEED

IC50 (BRG-1) | IC50 (BRM) | Structure (SMILES)
< 0.01 µM | < 0.01 µM | Cc1cc(-c2cccc(-c3csc(NC(=O)CNC(=O)c4ccn(S(C)(=O)=O)c4)n3)c2)ccn1 [Compound 154]
> 0.01 µM | > 0.01 µM | CS(=O)(=O)n1ccc(C(=O)NCC(=O)Nc2cccc(-c3cccc(-c4ccncc4)c3)n2)c1 [Compound 156, 1-(methylsulfonyl)-N-(2-oxo-2-((6-(3-(pyridin-4-yl)phenyl)pyridin-2-yl)amino)ethyl)-1H-pyrrole-3-carboxamide]
> 0.1 µM | > 0.1 µM | CC1(C)OCC12CN(c1cccc(-c3csc(NC(=O)CNC(=O)c4ccn(S(C)(=O)=O)c4)n3)c1)C2 [Compound 157]
> 0.1 µM | > 0.01 µM | C[C@H]1CN(c2cccc(-c3csc(NC(=O)CNC(=O)c4ccn(S(C)(=O)=O)c4)n3)c2)[C@@H](C)CO1 [Compound 160]
> 0.01 µM | > 0.01 µM | CO[C@@H]1CCCN(c2cccc(-c3csc(NC(=O)CNC(=O)c4ccn(S(C)(=O)=O)c4)n3)c2)C1 [Compound 161]
< 0.01 µM | < 0.01 µM | C[C@@H]1CN(c2cccc(-c3csc(NC(=O)CNC(=O)c4ccn(C(C)(C)C#N)c4)n3)c2)C[C@H](C)O1 [Compound 162]
> 0.01 µM | < 0.01 µM | C[C@@H]1CN(c2cccc(-c3csc(NC(=O)CNC(=O)c4ccn(C5(C#N)CC5)c4)n3)c2)C[C@H](C)O1 [Compound 163]
> 0.01 µM | < 0.01 µM | CC1(C)CN(c2cccc(-c3csc(NC(=O)CNC(=O)c4ccn(S(C)(=O)=O)c4)n3)c2)CC[C@H]1O [Compound 164]
> 0.01 µM | > 0.01 µM | CC1(C)CN(c2cccc(-c3csc(NC(=O)CNC(=O)c4ccn(S(C)(=O)=O)c4)n3)c2)CC[C@@H]1O [Compound 165]
> 0.01 µM | > 0.01 µM | CO[C@@H]1CN(c2cccc(-c3csc(NC(=O)CNC(=O)c4ccn(S(C)(=O)=O)c4)n3)c2)C[C@H]1F [Compound 168]
> 0.1 µM | > 0.1 µM | CS(=O)(=O)n1ccc(C(=O)NCC(=O)Nc2nc(-c3cccc(N4CCC(CO)(C(F)(F)F)C4)c3)cs2)c1 (centres unmarked) [Compound 169]
> 0.01 µM | > 0.01 µM | CS(=O)(=O)n1ccc(C(=O)NCC(=O)Nc2nc(-c3cccc(N4CC5(CCCCO5)C4)c3)cs2)c1 [Compound 170]
> 0.1 µM | > 0.1 µM | CS(=O)(=O)n1ccc(C(=O)NCC(=O)Nc2nc(-c3cccc(N4CC5(CCCOC5)C4)c3)cs2)c1 [Compound 171]
> 0.1 µM | > 0.01 µM | CS(=O)(=O)n1ccc(C(=O)NCC(=O)Nc2nc(-c3cccc(N4CC(n5ccnc5)C4)c3)cs2)c1 [Compound 172]
> 0.01 µM | > 0.01 µM | CS(=O)(=O)n1ccc(C(=O)NCC(=O)Nc2nc(-c3cccc(N4CC(n5cccn5)C4)c3)cs2)c1 [Compound 174]
> 0.01 µM | > 0.01 µM | CN(C)C1CN(c2cccc(-c3csc(NC(=O)CNC(=O)c4ccn(S(C)(=O)=O)c4)n3)c2)C1 [Compound 175]
> 0.1 µM | > 0.1 µM | CS(=O)(=O)n1ccc(C(=O)NCC(=O)Nc2nc(-c3cccc(N4CC(O)(C(F)(F)F)C4)c3)cs2)c1 [Compound 176]
> 0.01 µM | > 0.01 µM | CS(=O)(=O)n1ccc(C(=O)NCC(=O)Nc2nc(-c3cccc(N4CC[C@H](O)C4)c3)cs2)c1 [Compound 177]
< 0.01 µM | < 0.01 µM | CS(=O)(=O)n1ccc(C(=O)NCC(=O)Nc2nc(-c3cccc(N4CC[C@@H](O)C4)c3)cs2)c1 [Compound 178]
> 0.01 µM | > 0.01 µM | CC1(O)CN(c2cccc(-c3csc(NC(=O)CNC(=O)c4ccn(S(C)(=O)=O)c4)n3)c2)C1 [Compound 179]
> 0.01 µM | > 0.01 µM | CO[C@H]1CN(c2cccc(-c3csc(NC(=O)CNC(=O)c4ccn(S(C)(=O)=O)c4)n3)c2)C[C@@H]1F [Compound 180]
> 0.01 µM | > 0.01 µM | C[C@@H]1CN(c2cccc(-c3nc(NC(=O)CNC(=O)c4ccn(S(C)(=O)=O)c4)sc3F)c2)C[C@H](C)O1 [Compound 181, N-[2-[[4-[3-[(cis)-2,6-dimethylmorpholin-4-yl]phenyl]-5-fluoro-thiazol-2-yl]amino]-2-oxo-ethyl]-1-methylsulfonyl-pyrrole-3-carboxamide]
< 0.01 µM | < 0.01 µM | C[C@@H]1CN(c2cccc(-c3csc(NC(=O)CNC(=O)c4ccn(S(C)(=O)=O)c4)n3)c2)CC[C@H]1O [Compound 182, N-[2-[[4-[3-[(3R,4R)-4-hydroxy-3-methyl-1-piperidyl]phenyl]thiazol-2-yl]amino]-2-oxo-ethyl]-1-methylsulfonyl-pyrrole-3-carboxamide]
< 0.01 µM | < 0.01 µM | C[C@H]1CN(c2cccc(-c3csc(NC(=O)CNC(=O)c4ccn(S(C)(=O)=O)c4)n3)c2)CC[C@@H]1O [Compound 183, N-[2-[[4-[3-[(3S,4S)-4-hydroxy-3-methyl-1-piperidyl]phenyl]thiazol-2-yl]amino]-2-oxo-ethyl]-1-methylsulfonyl-pyrrole-3-carboxamide]
> 0.01 µM | > 0.01 µM | COCCOC1CN(c2cccc(-c3csc(NC(=O)CNC(=O)c4ccn(S(C)(=O)=O)c4)n3)c2)C1 [Compound 184]
> 0.01 µM | > 0.01 µM | CC1(n2ccc(C(=O)NCC(=O)Nc3nc(-c4cccc(N5CCC5)c4)cs3)c2)COC1 [Compound 185]

IC50 (BRG-1) | IC50 (BRM) | Structure (SMILES)
> 0.01 µM | > 0.01 µM | CC(C)(C)n1ccc(C(=O)NCC(=O)Nc2nc(-c3cccc(N4CCC4)c3)cs2)c1 [Compound 186]
> 0.01 µM | < 0.01 µM | C[C@@H]1CN(c2cccc(-c3csc(NC(=O)CNC(=O)c4ccn(S(C)(=O)=O)c4)n3)c2)CC[C@@H]1O [Compound 188]
< 0.01 µM | < 0.01 µM | CN(C)C(=O)Cn1ccc(-c2cccc(-c3csc(NC(=O)CNC(=O)c4ccn(S(C)(=O)=O)c4)n3)c2)n1 [Compound 189]
< 0.01 µM | < 0.01 µM | CS(=O)(=O)n1ccc(C(=O)NCC(=O)Nc2nc(-c3cccc(N4CC[C@H](O)[C@@H](F)C4)c3)cs2)c1 [Compound 190]
> 0.01 µM | < 0.01 µM | CS(=O)(=O)n1ccc(C(=O)NCC(=O)Nc2nc(-c3cccc(N4CC[C@H](O)[C@H](F)C4)c3)cs2)c1 [Compound 191]
> 0.01 µM | > 0.01 µM | COCCS(=O)(=O)n1ccc(C(=O)NCC(=O)Nc2nc(-c3cccc(N4C[C@@H](C)O[C@@H](C)C4)c3)cs2)c1 [Compound 193]
> 0.01 µM | < 0.01 µM | CC1(C)CN(c2cccc(-c3csc(NC(=O)CNC(=O)c4ccn(S(C)(=O)=O)c4)n3)c2)CCC1O (centres unmarked) [Compound 194]
< 0.01 µM | < 0.01 µM | CS(=O)(=O)n1ccc(C(=O)NCC(=O)Nc2nc(-c3cccc(N4CC[C@@H](O)[C@H](F)C4)c3)cs2)c1 [Compound 195]
< 0.01 µM | < 0.01 µM | CS(=O)(=O)n1ccc(C(=O)NCC(=O)Nc2nc(-c3cccc(N4CC[C@@H](O)[C@@H](F)C4)c3)cs2)c1 [Compound 196]
> 0.01 µM | < 0.01 µM | CS(=O)(=O)n1ccc(C(=O)NCC(=O)Nc2nc(-c3cccc(N4CCC[C@H](C#N)C4)c3)cs2)c1 [Compound 197]
> 0.01 µM | > 0.01 µM | CO[C@H]1CN(c2cccc(-c3csc(NC(=O)CNC(=O)c4ccn(S(C)(=O)=O)c4)n3)c2)C[C@H]1OC [Compound 199]
> 0.01 µM | > 0.01 µM | COC[C@H]1CCN(c2cccc(-c3csc(NC(=O)CNC(=O)c4ccn(S(C)(=O)=O)c4)n3)c2)C1 [Compound 200]
> 0.01 µM | < 0.01 µM | COC[C@@H]1CCN(c2cccc(-c3csc(NC(=O)CNC(=O)c4ccn(S(C)(=O)=O)c4)n3)c2)C1 [Compound 201]
> 0.01 µM | > 0.01 µM | CS(=O)(=O)n1ccc(C(=O)NCC(=O)Nc2nc(-c3cccc(N4CCC5(CC4)COC5)c3)cs2)c1 [Compound 202]
> 0.01 µM | > 0.01 µM | CC1(C)CN(c2cccc(-c3csc(NC(=O)CNC(=O)c4ccn(S(C)(=O)=O)c4)n3)c2)CC(C)(C)O1 [Compound 203]
> 0.01 µM | > 0.01 µM | CS(=O)(=O)n1ccc(C(=O)NCC(=O)Nc2nc(-c3cccc(N4CCCC5(COC5)C4)c3)cs2)c1 [Compound 204]
> 0.01 µM | > 0.01 µM | C[C@]1(O)CCCN(c2cccc(-c3csc(NC(=O)CNC(=O)c4ccn(S(C)(=O)=O)c4)n3)c2)C1 [Compound 205]
> 0.01 µM | < 0.01 µM | C[C@@]1(O)CCCN(c2cccc(-c3csc(NC(=O)CNC(=O)c4ccn(S(C)(=O)=O)c4)n3)c2)C1 [Compound 206]
> 0.01 µM | > 0.01 µM | CS(=O)(=O)n1ccc(C(=O)NCC(=O)Nc2nc(-c3cccc(N4C[C@H]5C[C@H]5C4)c3)cs2)c1 [Compound 207]
> 0.01 µM | > 0.01 µM | CS(=O)(=O)n1ccc(C(=O)NCC(=O)Nc2nc(-c3cccc(N4CCC[C@H](F)C4)c3)cs2)c1 [Compound 208]
> 0.01 µM | > 0.01 µM | CCS(=O)(=O)n1ccc(C(=O)NCC(=O)Nc2nc(-c3cccc(N4CCC(O)CC4)c3)cs2)c1 [Compound 209]
> 0.01 µM | > 0.01 µM | CS(=O)(=O)n1ccc(C(=O)NCC(=O)Nc2nc(-c3cccc(N4CCCOCC4)c3)cs2)c1 [Compound 210]
> 0.01 µM | > 0.01 µM | CS(=O)(=O)n1ccc(C(=O)NCC(=O)Nc2nc(-c3cccc(N4CCC[C@@H](C#N)C4)c3)cs2)c1 [Compound 211]
< 0.01 µM | < 0.01 µM | CS(=O)(=O)n1ccc(C(=O)NCC(=O)Nc2nc(-c3cccc(N4CC(O)C4)c3)cs2)c1 [Compound 212]
> 0.01 µM | > 0.01 µM | CS(=O)(=O)n1ccc(C(=O)NCC(=O)Nc2nc(-c3cccc(N4CCC[C@@H](F)C4)c3)cs2)c1 [Compound 213]
> 0.1 µM | > 0.1 µM | CS(=O)(=O)n1ccc(C(=O)NCC(=O)Nc2nc(-c3cccc(N4CC5CC4CO5)c3)cs2)c1 (centres unmarked) [Compound 214]
